{"source": "ChEMBL document CHEMBL6182943", "about": "“Identification of 4'-Thiouridine as an Orally Available Antiviral Agent Targeting Both RdRp and NiRAN Functions of SARS-CoV-2 Nsp12” (J Med Chem, 2025)", "key": {"Influenza B virus": {"tested_on": "Influenza B virus", "assay": "Antiviral activity against Influenza B virus B/Lee/40 infected in MDCK cells assessed as reduction in virus-induced cytopathic effect incubated for 3 days in presence of TPCK-treated trypsin by MTT assay", "format": "functional, organism-based", "conditions": "B/Lee/40, MDCK, 72 h"}, "[1]": {"assay": "Selectivity index, ratio of CC50 for cytotoxicity against MDCK cells to EC50 for antiviral activity against Influenza A virus A/Hong Kong/8/68 (H3N2) infected in MDCK cells assessed as reduction in virus-induced cytopathic effect", "format": "toxicity, cell-based", "conditions": "dog, read-out: Ratio CC50/EC50"}, "Influenza A virus": {"tested_on": "Influenza A virus", "assay": "Antiviral activity against Influenza A virus A/Hong Kong/8/68 (H3N2) infected in MDCK cells assessed as reduction in virus-induced cytopathic effect incubated for 3 days in presence of TPCK-treated trypsin by MTT assay", "format": "functional, organism-based", "conditions": "72 h"}, "[2]": {"assay": "Cytotoxicity against golden hamster BHK-21 cells assessed as reduction in cell viability by MTT assay", "format": "toxicity, cell-based, Mesocricetus auratus"}, "Influenza A virus (H1N1)": {"tested_on": "Influenza A virus (H1N1)", "assay": "Antiviral activity against Influenza A virus A/Puerto Rico/8/34 (H1N1) infected in MDCK cells assessed as reduction in virus-induced cytopathic effect incubated for 3 days in presence of TPCK-treated trypsin by MTT assay", "format": "functional, organism-based", "conditions": "72 h"}, "dengue virus type 2": {"tested_on": "dengue virus type 2", "assay": "Antiviral activity against Dengue virus 2 infected in BHK-21 cells transfected with Renilla luciferase tagged viral subgenomic replicon incubated for 48 hrs by luciferase based assay", "format": "functional, organism-based", "conditions": "BHK-21, 48 h"}, "[3]": {"assay": "Selectivity index, ratio of CC50 for cytotoxicity against golden hamster BHK-21 cells to EC50 for antiviral activity against Dengue virus 2 infected in BHK-21 cells transfected with Renilla luciferase tagged viral subgenomic replicon", "format": "toxicity, cell-based", "conditions": "read-out: Ratio CC50/EC50"}, "[4]": {"assay": "Selectivity index, ratio of CC50 for cytotoxicity against MDCK cells to EC50 for antiviral activity against Influenza B virus B/Lee/40 infected in MDCK cells assessed as reduction in virus-induced cytopathic effect", "format": "toxicity, cell-based", "conditions": "dog, read-out: Ratio CC50/EC50"}, "[5]": {"assay": "Cytotoxicity against MDCK cells assessed as reduction in cell viability incubated for 3 days by MTT assay", "format": "toxicity, cell-based, Canis lupus familiaris", "conditions": "dog, time 3 day"}, "[6]": {"assay": "Selectivity index, ratio of CC50 for cytotoxicity against MDCK cells to EC50 for antiviral activity against Influenza A virus A/Puerto Rico/8/34 (H1N1) infected in MDCK cells assessed as reduction in virus-induced cytopathic effect", "format": "toxicity, cell-based", "conditions": "dog, read-out: Ratio CC50/EC50"}}}
{"smiles": "NC(=O)c1ncn([C@@H]2O[C@H](CO)[C@@H](O)[C@H]2O)n1", "note": "[RIBAVIRIN]", "values": [{"measurement": "EC50", "setting": "Influenza B virus", "value": 15.7, "unit": "µM"}, {"measurement": "selectivity ratio", "setting": "[1]", "value": "> 5.82"}, {"measurement": "EC50", "setting": "Influenza A virus", "value": 17.2, "unit": "µM"}, {"measurement": "CC50", "setting": "[2]", "value": "> 100", "unit": "µM"}, {"measurement": "EC50", "setting": "Influenza A virus (H1N1)", "value": 17.3, "unit": "µM"}, {"measurement": "EC50", "setting": "dengue virus type 2", "value": 3.47, "unit": "µM"}, {"measurement": "selectivity ratio", "setting": "[3]", "value": "> 28.8"}, {"measurement": "selectivity ratio", "setting": "[4]", "value": "> 6.39"}, {"measurement": "CC50 at 72 h", "setting": "[5]", "value": "> 100", "unit": "µM"}, {"measurement": "selectivity ratio", "setting": "[6]", "value": "> 5.77"}]}
